Patent US20030069189A1, “Treatment of infarcts” (Millennium Pharmaceuticals, Inc., priority 1997, published 2003)

Tested on: middle cerebral artery (MCA) occlusion
Conditions: rat, 2 h MCA occlusion, 24 h reperfusion, 0.03 mg/kg iv bolus at 30 minutes
Protocol: Six male Sprague Dawley rats (300 g) were anesthetized with haloethane and subjected to middle cerebral artery (MCA) occlusion using a nylon filament for 2 h. Subsequently, the filament was removed and reperfusion of the infarcted tissue occurred for 24 hours before the rat was sacrificed.
Staining of coronal sections (2.0 mm×7-8) with triphenyltetrazolium chloride ([…]) taken throughout the brain were evaluated under blinded conditions using image analysis to determine infarct size.
The infarct was also expressed as a percentage of the contralateral (non-infarcted) hemisphere to provide an indication of how much of the ipsilateral (infarcted) hemisphere was actually damaged by the procedure. Because edema is present in the infarcted hemisphere, it is often impossible to directly ascertain the percentage of the ipsilateral hemisphere that has been damaged.
Rats were given iv bolus injections (1.0 mL/kg) of either vehicle (10% PEG 200/saline; n=3) or N-(2-pyrazine)carbonyl-L-phenylalanine-L-leucine boronic acid (0.03 mg/kg; n=3) at 30 minutes, 2 hours, and 6 hours after the start of the occlusion.

Q: `CC(C)CC(NC(=O)C(Cc1ccccc1)NC(=O)c1cnccn1)B(O)O` [N-(2-pyrazine)carbonyl-L-phenylalanine-L-leucine boronic acid] was tested. Which “Infarct volume decreased on the ipsilateral hemisphere” value (2 hours and 6 hours after start of occlusion, vs vehicle) did it give?
A: Its value is 62%.

Q: What about the “Total damage of the hemisphere (infarct as percentage of contralateral hemisphere)” value (2 hours and 6 hours, vehicle 19%) of the same compound?
A: The value was 2%.
